This is an account of results in patent US12377171B2, “Methods for treating and diagnosing blinding eye diseases” (Translatum Medicus Inc., priority 2012, dated 2025).

The assay has as its system circulating macrophage/monocyte population. Description: Monocyte/macrophage depletion with gadolinium chloride in the NaIO3 model. The format is in vivo, rat. The text has this:
To determine the identity of the autofluorescent cells that coincide with the reticular pattern of FAF, excised retina were stained for with markers of the innate immune system, avoiding the 488 nm channel. Iba1 is a pan-microglial/macrophage marker and in the rat retina; antibodies against it identify the major phagocytic cell populations. […] Further, when compared against photoreceptor nuclear staining, this curvilinear pattern is seen to lie interposed between folds of the deformed ONL. This pattern of Iba1^+ cells corresponds with the pattern of hyperfluorescence observed in vivo by FAF imaging, and with the pattern of autofluorescent cells in excised retina. […] Importantly, at 7 days after NaIO3, all RPE cells are absent from the posterior eye cup, confirming that these cells cannot be responsible for the observed FAF. Also, identification of the autofluorescent cells as phagocytic was confirmed by comparison of imaging to preparations in which monocyte/macrophage depletion has been undertaken. Such depletion was achieved by treatment with gadolinium chloride (GAD). […]

SMILES strings stand for the structures. Entries after “also recorded” stand apart in the source; their conditions may differ.

In the case of `[Cl][Gd]([Cl])[Cl]` [GAD, gadolinium chloride], the area of damage result (7 days after NaIO3 and simultaneous GAD depletion) was “smaller areas of damage”. The “FAF pattern of NaIO3-induced outer retinal damage” value (GAD-treated vs untreated, after NaIO3) was “far less well defined reticular patterns of FAF; also recorded: profound alteration of the NaIO3-induced pattern of FAF and DNIRA; also recorded: less well-demarcated borders”.
